Patent US20250340886A1, “INTRACELLULAR KINASE ASSOCIATED WITH RESISTANCE AGAINST ANTI-TUMOUR IMMUNE RESPONSES, AND USES THEREOF” (iOmx Therapeutics AG, priority 2017, published 2025)
Like-named read-outs stand apart in the source and are kept apart here.

Legend:
[1] = biological target: SIK1 (Homo sapiens (Human), UniProt P57059); test: radiometric protein kinase assay (33PanQinase Activity Assay, ProQinase Free Choice Kinase Assay); format: biochemical; settings: read-out: SIK1 IC50 rank
[2] = biological target: SIK3 (Homo sapiens (Human), UniProt Q9Y2K2); test: as above; format: biochemical; settings: read-out: SIK3 IC50 rank
[3] = biological target: SIK2 (Homo sapiens (Human), UniProt Q9H0K1); test: as above; format: biochemical; settings: ATP 1.0 uM, read-out: SIK2 IC50 rank
[4] = biological target: SRC (GST-HIS-tag) (Homo sapiens (Human), UniProt P12931); test: as above; format: biochemical; settings: indicative IC50, Table 4; ATP 0.3 uM; read-out: SRC IC50 rank
[5] = biological target: ABL1 wt (Homo sapiens (Human), UniProt P00519); test: as above; format: biochemical; settings: indicative IC50, Table 4; ATP 0.3 uM; read-out: ABL1 IC50 rank
[6] = test system: PANC-1-luc cells; test: luciferase-based T cell-mediated killing assay of siRNA-transfected PANC-1-luc cells; design: species or system human; settings: absence of T cells (viability setting)
Text: FIG. 2: Luciferase-based cytotoxicity assay for the assessment of T cell-mediated killing of siRNA transfected PANC-1-luc cells.
The inventors describe herein their surprising finding that SIK3 is a gene involved in tumour cell resistance against a cell-mediated immune response. Such role of SIK3 was first identified by the inventors using a high-throughput screening approach—to identify novel genes involved in mechanisms of tumour resistance towards T cell attack—as adapted and expanded from the screening approach developed and described by Khandelwal et al, 2015 (EMBO Mol Med 7:450). Briefly, using a siRNA library, 2514 genes were individually knocked-down in HLA-A2.1+ luciferase-expressing PANC1 cells (PANC1-luc), a pancreatic adenocarcinoma (PDAC) tumour cell line. Each gene's siRNA-transfected PANC1-luc tumour cells were then co-cultured with magnetically purified CD8+ T cells from an HLA-A2.1+ PDAC-derived tumour infiltrating lymphocyte culture (TIL #1). The impact of siRNA-mediated gene knockdown on TIL-mediated killing of tumour cells was measured using a luciferase-based cytotoxicity assay (cytotoxicity setting). In order to exclude those genes whose knockdown intrinsically affects cell viability, complementary screening was performed without the addition of TIL #1 (viability setting). False positive genes were further excluded using a luciferase-independent viability screen.
The present invention is based on the dramatic impact that inhibition of SIK3 of tumour cells determines a reduction of tumour cell survival after co-culture with a cell-mediated immune response. […]
The PANC1-luc cell line was constructed as follows: PANC-1 cells were acquired from the American Type Cell Culture (ATCC). […] After lysis, luciferase assay buffer was added and immediately the luciferase intensity was measured by using the TECAN-Spark microplate reader.

[7] = indicative IC50, Table 2A, ATP 3.0 uM
[8] = indicative IC50, Table 2A, ATP 1.0 uM
[9] = indicative IC50, Table 4, ATP 3.0 uM
[10] = indicative IC50, Table 4, ATP 1.0 uM

Chain of ABL1 wt (P00519 whole entry): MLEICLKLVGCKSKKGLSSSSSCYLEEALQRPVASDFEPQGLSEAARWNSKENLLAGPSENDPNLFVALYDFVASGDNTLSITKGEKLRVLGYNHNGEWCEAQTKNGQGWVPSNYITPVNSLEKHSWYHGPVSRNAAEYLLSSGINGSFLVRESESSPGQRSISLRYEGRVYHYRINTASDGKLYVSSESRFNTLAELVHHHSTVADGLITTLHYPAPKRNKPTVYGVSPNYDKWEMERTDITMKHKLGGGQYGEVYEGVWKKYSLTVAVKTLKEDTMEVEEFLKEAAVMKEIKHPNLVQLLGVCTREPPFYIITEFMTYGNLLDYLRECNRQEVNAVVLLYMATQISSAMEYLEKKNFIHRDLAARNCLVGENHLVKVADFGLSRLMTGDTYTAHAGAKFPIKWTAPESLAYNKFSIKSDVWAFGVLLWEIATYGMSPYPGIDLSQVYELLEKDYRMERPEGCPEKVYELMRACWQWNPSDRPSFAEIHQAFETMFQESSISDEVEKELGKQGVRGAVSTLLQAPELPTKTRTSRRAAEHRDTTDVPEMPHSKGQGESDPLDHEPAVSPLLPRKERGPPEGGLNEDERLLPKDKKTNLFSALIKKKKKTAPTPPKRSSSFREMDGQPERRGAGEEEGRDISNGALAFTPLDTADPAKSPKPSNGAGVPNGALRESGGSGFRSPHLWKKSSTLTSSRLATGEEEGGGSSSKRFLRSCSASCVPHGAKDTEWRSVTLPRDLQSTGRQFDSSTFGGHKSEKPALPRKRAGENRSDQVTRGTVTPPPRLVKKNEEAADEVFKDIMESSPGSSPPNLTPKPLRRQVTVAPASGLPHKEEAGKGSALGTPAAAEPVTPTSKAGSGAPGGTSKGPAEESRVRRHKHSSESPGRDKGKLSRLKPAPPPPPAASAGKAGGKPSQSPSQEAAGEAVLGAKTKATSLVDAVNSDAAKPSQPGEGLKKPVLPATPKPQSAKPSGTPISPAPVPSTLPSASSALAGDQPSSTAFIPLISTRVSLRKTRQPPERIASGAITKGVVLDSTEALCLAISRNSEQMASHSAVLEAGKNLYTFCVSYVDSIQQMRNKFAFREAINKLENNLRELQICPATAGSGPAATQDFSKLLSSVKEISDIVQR
Chain of SIK1 (P57059 whole entry): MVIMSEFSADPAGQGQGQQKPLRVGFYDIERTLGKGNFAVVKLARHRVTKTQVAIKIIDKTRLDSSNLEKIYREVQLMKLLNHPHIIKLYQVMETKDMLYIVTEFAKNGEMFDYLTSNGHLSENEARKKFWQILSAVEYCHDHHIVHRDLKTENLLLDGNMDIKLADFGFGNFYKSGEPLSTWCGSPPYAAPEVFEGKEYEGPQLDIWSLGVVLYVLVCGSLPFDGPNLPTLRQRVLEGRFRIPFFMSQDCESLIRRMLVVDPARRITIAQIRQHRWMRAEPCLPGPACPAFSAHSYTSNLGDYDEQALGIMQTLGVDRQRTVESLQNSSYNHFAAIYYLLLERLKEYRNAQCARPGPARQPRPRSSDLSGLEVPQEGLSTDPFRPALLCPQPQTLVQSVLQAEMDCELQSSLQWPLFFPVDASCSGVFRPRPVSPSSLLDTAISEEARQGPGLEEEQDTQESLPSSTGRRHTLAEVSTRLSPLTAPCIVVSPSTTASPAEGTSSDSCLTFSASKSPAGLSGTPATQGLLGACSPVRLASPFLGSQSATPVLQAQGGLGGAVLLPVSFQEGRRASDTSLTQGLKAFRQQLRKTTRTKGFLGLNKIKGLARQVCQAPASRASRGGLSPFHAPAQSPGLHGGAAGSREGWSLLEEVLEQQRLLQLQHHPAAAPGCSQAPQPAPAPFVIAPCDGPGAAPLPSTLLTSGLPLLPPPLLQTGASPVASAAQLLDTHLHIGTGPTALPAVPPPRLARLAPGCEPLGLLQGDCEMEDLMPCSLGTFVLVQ
Chain of SIK3 (Q9Y2K2 whole entry): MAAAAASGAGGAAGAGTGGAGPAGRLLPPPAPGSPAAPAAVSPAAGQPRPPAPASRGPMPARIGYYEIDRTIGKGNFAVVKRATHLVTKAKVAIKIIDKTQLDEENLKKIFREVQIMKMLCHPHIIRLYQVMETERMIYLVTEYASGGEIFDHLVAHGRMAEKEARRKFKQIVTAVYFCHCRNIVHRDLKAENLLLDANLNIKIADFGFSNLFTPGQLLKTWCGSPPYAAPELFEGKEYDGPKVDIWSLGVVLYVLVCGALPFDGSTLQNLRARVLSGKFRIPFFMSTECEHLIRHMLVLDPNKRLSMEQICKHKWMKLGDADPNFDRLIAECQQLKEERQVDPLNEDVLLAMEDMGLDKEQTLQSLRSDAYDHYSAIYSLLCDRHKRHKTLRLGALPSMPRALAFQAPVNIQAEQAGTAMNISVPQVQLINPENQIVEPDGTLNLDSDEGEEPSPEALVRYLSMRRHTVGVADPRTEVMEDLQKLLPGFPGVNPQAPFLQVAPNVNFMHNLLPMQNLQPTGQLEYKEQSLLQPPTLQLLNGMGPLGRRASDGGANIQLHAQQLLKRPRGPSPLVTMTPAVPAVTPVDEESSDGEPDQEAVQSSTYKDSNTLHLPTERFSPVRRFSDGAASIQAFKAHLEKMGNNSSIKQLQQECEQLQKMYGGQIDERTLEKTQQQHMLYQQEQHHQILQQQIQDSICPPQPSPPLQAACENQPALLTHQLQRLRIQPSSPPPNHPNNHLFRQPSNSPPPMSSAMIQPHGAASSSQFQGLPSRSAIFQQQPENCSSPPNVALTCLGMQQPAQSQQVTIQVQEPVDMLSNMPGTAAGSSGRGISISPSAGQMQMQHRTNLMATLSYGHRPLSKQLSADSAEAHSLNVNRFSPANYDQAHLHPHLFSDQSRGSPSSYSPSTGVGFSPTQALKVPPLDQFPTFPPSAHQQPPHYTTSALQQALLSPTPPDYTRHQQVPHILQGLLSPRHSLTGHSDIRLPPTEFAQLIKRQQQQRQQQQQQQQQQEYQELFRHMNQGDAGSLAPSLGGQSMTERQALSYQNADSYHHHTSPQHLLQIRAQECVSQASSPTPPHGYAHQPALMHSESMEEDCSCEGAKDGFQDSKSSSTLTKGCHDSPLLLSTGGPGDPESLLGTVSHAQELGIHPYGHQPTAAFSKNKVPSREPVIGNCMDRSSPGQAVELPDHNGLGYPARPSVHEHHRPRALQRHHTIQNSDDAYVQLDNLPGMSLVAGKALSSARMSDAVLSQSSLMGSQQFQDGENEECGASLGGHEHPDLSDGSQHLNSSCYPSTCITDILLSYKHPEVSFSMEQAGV
Chain of SRC (GST-HIS-tag) (P12931 whole entry, looked up): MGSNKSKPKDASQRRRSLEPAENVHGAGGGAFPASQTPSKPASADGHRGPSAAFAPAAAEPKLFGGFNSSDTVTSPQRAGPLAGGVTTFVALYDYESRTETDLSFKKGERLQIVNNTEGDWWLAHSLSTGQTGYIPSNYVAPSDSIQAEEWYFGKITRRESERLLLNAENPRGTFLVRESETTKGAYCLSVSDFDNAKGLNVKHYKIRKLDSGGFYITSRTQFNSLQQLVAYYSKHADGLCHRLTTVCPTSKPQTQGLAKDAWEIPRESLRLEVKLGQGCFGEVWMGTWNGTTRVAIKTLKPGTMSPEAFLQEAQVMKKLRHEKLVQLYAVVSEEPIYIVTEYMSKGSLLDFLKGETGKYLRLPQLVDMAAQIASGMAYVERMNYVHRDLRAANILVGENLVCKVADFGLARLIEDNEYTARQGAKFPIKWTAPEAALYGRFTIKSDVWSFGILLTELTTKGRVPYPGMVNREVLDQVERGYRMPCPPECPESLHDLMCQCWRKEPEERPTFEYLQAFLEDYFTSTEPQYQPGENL
Chain of SIK2 (Q9H0K1 whole entry): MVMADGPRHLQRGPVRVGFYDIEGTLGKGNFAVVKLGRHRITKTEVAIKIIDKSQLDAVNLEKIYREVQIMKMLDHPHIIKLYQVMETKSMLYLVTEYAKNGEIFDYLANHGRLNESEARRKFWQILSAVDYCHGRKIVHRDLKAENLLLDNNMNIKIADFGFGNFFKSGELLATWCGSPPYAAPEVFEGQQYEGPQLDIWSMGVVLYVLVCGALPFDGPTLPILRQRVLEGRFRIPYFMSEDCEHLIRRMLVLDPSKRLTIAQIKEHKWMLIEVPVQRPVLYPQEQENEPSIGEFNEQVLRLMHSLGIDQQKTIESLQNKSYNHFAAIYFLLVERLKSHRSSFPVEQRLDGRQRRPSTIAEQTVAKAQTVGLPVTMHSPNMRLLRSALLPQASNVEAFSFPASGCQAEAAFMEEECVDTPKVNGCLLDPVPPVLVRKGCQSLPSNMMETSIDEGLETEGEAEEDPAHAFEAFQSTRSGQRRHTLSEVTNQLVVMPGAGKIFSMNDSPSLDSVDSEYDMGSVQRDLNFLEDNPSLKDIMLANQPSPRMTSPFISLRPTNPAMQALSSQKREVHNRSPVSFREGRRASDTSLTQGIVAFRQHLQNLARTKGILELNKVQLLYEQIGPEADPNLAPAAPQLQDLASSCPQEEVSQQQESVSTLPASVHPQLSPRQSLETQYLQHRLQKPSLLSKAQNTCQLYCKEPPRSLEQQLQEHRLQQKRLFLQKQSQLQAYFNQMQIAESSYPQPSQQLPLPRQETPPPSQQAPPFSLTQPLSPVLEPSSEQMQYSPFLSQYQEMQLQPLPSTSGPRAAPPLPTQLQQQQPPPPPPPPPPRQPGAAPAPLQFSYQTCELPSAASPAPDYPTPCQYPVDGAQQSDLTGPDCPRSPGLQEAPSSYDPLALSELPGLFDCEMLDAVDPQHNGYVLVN

Row | Compound | IC50 [1, 7] [nM] | IC50 [2, 8] [nM] | IC50 ([3]; indicative IC50, Table 2A) [nM] | IC50 [1, 9] [nM] | IC50 [4] [nM] | IC50 [2, 10] [nM] | IC50 [5] [nM] | IC50 ([3]; indicative IC50, Table 4) [nM] | other results
1 | Cc1nc(Nc2ncc(C(=O)Nc3c(F)cccc3Cl)s2)cc(N2CCN(CCO)CC2)n1 [Compound A1, N-(2-chloro-6-fluorophenyl)-2-((6-(4-(2-hydroxyethyl)piperazin-1-yl)-2-methylpyrimidin-4-yl)amino)thiazole-5-carboxamide] | < 100 | < 100 | < 100 |  |  |  |  |  | 
2 | Cc1nc(Nc2ncc(C(=O)Nc3c(F)cccc3F)s2)cc(N2CCN(CCO)CC2)n1 [Compound A2, N-(2,6-difluorophenyl)-2-((6-{4-(2-hydroxyethyl)piperazin-1-yl)-2-methylpyrimidin-4-yl)amino)thiazole-5-carboxamide] | < 100 | < 100 | < 100 |  |  |  |  |  | 
3 | Cc1nc(Nc2ncc(C(=O)Nc3c(F)cccc3Br)s2)cc(N2CCN(CCO)CC2)n1 [Compound A3, N-(2-bromo-6-fluorophenyl)-2-((6-(4-(2-hydroxyethyl)piperazin-1-yl)-2-methylpyrimidin-4-yl)amino)thiazole-5-carboxamide] | < 100 | < 100 | < 100 |  |  |  |  |  | 
4 | C#Cc1cccc(NC(=O)c2cnc(Nc3cc(N4CCN(CCO)CC4)nc(C)n3)s2)c1 [Compound A4, N-(3-ethynylphenyl)-2-((6-(4-(2-hydroxyethyl)piperazin-1-yl)-2-methylpyrimidin-4-yl)amino)thiazole-5-carboxamide] | > 1000 | > 1000 | > 100 |  |  |  |  |  | 
5 | Cc1nc(Nc2ncc(C(=O)Nc3ccc(F)cc3)s2)cc(N2CCN(CCO)CC2)n1 [Compound A5, N-(4-fluorophenyl)-2-((6-(4-(2-hydroxyethyl)piperazin-1-yl)-2-methylpyrimidin-4-yl)amino)thiazole-5-carboxamide] | > 100 | > 1000 | > 100 |  |  |  |  |  | 
6 | Cc1nc(Nc2ncc(C(=O)Nc3ccc(Br)cc3F)s2)cc(N2CCN(CCO)CC2)n1 [Compound A7, N-(4-bromo-6-fluorophenyl)-2-((6-(4-(2-hydroxyethyl)piperazin-1-yl)-2-methylpyrimidin-4-yl)amino)thiazole-5-carboxamide] | < 100 | > 500 | > 100 |  |  |  |  |  | 
7 | Cc1nc(Nc2ncc(C(=O)Nc3ccccc3C)s2)cc(N2CCN(CCO)CC2)n1 [Compound A9, 2-((6-(4-(2-hydroxyethyl)piperazin-1-yl)-2-methylpyrimidin-4-yl)amino)-N-(o-tolyl)thiazole-5-carboxamide] | < 100 | < 100 | < 100 |  |  |  |  |  | 
8 | Cc1nc(Nc2ncc(C(=O)Nc3ccccc3Cl)s2)cc(N2CCN(CCO)CC2)n1 [Compound A10, N-(2-chlorophenyl)-2-((6-(4-(2-hydroxyethyl)piperazin-1-yl)-2-methylpyrimidin-4-yl)amino)thiazole-5-carboxamide] | < 100 | > 100 | < 100 |  |  |  |  |  | 
9 | Cc1nc(Nc2ncc(C(=O)Nc3c(C)cccc3C)s2)cc(N2CCN(CCO)CC2)n1 [Compound A12, N-(2,6-dimethylphenyl)-2-((6-(4-(2-hydroxyethyl)piperazin-1-yl)-2-methylpyrimidin-4-yl)amino)thiazole-5-carboxamide] | < 100 | < 100 | < 100 |  |  |  |  |  | 
10 | Cc1nc(Nc2ncc(C(=O)Nc3c(Cl)cccc3Cl)s2)cc(N2CCN(CCO)CC2)n1 [Compound A13, N-(2,6-dichlorophenyl)-2-((6-(4-(2-hydroxyethyl)piperazin-1-yl)-2-methylpyrimidin-4-yl)amino)thiazole-5-carboxamide] | < 100 | < 100 | < 100 |  |  |  |  |  | 
11 | s1: SIK3 siRNA, sequence GCGCCAGGCUUUAUCUUAU, Dharmacon D-004779-01 (listed as RNA, chemistry not given here) |  |  |  |  |  |  |  |  | cell viability of tumour cells [6]: slight reduction of cell viability
12 | s2: SIK3 siRNA, sequence GAACAGCGACGAUGCUUAU, Dharmacon D-004779-05 (listed as RNA, chemistry not given here) |  |  |  |  |  |  |  |  | cell viability of tumour cells [6]: slight reduction of cell viability
13 | s3: SIK3 siRNA, sequence GCACUAACCUGCUUGGGUA, Dharmacon D-004779-06 (listed as RNA, chemistry not given here) |  |  |  |  |  |  |  |  | cell viability of tumour cells [6]: slight reduction of cell viability

Second part, led by results:

Row | IC50 [1, 7] [nM] | IC50 [2, 8] [nM] | IC50 ([3]; indicative IC50, Table 2A) [nM] | IC50 [1, 9] [nM] | IC50 [4] [nM] | IC50 [2, 10] [nM] | IC50 [5] [nM] | IC50 ([3]; indicative IC50, Table 4) [nM] | Compound | other results
14 |  |  |  | < 100 | < 100 | < 100 | < 100 | < 100 | Cc1nc(Nc2ncc(C(=O)Nc3c(Cl)cccc3Br)s2)cc(N2CCN(CCO)CC2)n1 [Compound B1, N-(2-bromo-6-chlorophenyl)-2-((6-(4-(2-hydroxyethyl)piperazin-1-yl)-2-methylpyrimidin-4-yl)amino)thiazole-5-carboxamide] | 
15 |  |  |  | < 100 | < 100 | > 100 | < 100 | < 100 | Cc1nc(Nc2ncc(C(=O)Nc3c(Br)cccc3Br)s2)cc(N2CCN(CCO)CC2)n1 [Compound B2, N-(2,6-dibromophenyl)-2-((6-(4-(2-hydroxyethyl)piperazin-1-yl)-2-methylpyrimidin-4-yl)amino)thiazole-5-carboxamide] | 
16 |  |  |  | > 100 | < 100 | > 1000 | < 100 | > 100 | COc1c(F)cccc1NC(=O)c1cnc(Nc2cc(N3CCN(CCO)CC3)nc(C)n2)s1 [Compound B4, N-(3-fluoro-2-methoxyphenyl)-2-((6-(4-(2-hydroxyethyl)piperazin-1-yl)-2-methylpyrimidin-4-yl)amino)thiazole-5-carboxamide] | 
17 |  |  |  | < 100 | < 100 | < 100 | < 100 | < 100 | Cc1nc(Nc2ncc(C(=O)Nc3c(C)cccc3Cl)s2)cc(N2CCN(C)CC2)n1 [Compound B5, N-(2-chloro-6-methylphenyl)-2-((2-methyl-6-(4-methylpiperazin-1-yl)pyrimidin-4-yl)amino)thiazole-5-carboxamide] | 
18 |  |  |  | < 100 | < 100 | < 100 | < 100 | < 100 | CC(=O)N1CCN(c2cc(Nc3ncc(C(=O)Nc4c(C)cccc4Cl)s3)nc(C)n2)CC1 [Compound B6, 2-((6-(4-acetylpiperazin-1-yl)-2-methylpyrimidin-4-yl)amino)-N-(2-chloro-6-methylphenyl)thiazole-5-carboxamide] | 
19 |  |  |  | < 100 | < 100 | < 100 | < 100 | < 100 | Cc1nc(NCCO)cc(Nc2ncc(C(=O)Nc3c(C)cccc3Cl)s2)n1 [Compound B7, N-(2-chloro-6-methylphenyl)-2-((6-((2-hydroxyethyl)amino)-2-methylpyrimidin-4-yl)amino)thiazole-5-carboxamide] | 
20 |  |  |  |  |  |  |  | > 500 | Cc1nc(Nc2ncc(C(=O)Nc3ccc(F)c(Cl)c3)s2)cc(N2CCN(CCO)CC2)n1 [Compound B9] | IC50 [1]: > 5000 nM; IC50 [2]: > 5000 nM
